Test [1] deals with KCNMA1/KCNMB4 (Homo sapiens, UniProt Q12791+Q86W47). As to the kind of experiment: Inhibition of human BK alpha/beta4 channel expressed in HEK293T cells assessed as K+ outward current fraction at 10 uM at -80 mV holding potential by whole cell patch clamp method relative to control. Format: cell-based.
The target in test [2] is T1, Calcium-activated potassium channel subunit beta-4 (Homo sapiens, UniProt Q86W47).
T1 sequence (Q86W47 whole entry): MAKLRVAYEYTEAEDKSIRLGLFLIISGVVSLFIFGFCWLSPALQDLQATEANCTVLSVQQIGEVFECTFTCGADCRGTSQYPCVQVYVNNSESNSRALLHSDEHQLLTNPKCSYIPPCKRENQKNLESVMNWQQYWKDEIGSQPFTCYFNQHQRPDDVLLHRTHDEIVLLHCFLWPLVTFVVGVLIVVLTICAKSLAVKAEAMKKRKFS
As to the kind of experiment: Binding affinity to NT-495 fluorophore reagent labelled human BK beta4 (45 to 166 residues) incubated for 30 mins by microscale thermophoresis assay.

Regarding `CC[C@H](C)[C@H](NC(=O)[C@H](CC(C)C)NC(=O)CNC(=O)[C@H](Cc1ccccc1)NC(=O)[C@H](CO)NC(=O)CN)C(=O)N[C@@H](CC(=O)O)C(=O)N[C@H](C(=O)N[C@@H](CCCCN)C(=O)N[C@H]1CSSC[C@@H]2NC(=O)[C@H](CCCCN)NC(=O)CNC(=O)[C@H](CCC(N)=O)NC(=O)CNC(=O)[C@H](C)NC(=O)CNC(=O)[C@H]([C@@H](C)O)NC(=O)[C@H](C(C)C)NC(=O)[C@H](CCCCN)NC(=O)[C@H](CCCCN)NC(=O)[C@@H]3CSSC[C@@H](C(=O)N[C@@H](Cc4ccc(O)cc4)C(=O)O)N[C@@H](CCCNC(=N)N)C(=O)[C@H](CSSC[C@H](NC(=O)[C@H](CCC(=O)O)NC(=O)[C@H](CO)NC(=O)[C@H](CO)NC(=O)[C@H](C)NC(=O)[C@H](Cc4ccccc4)NC1=O)C(=O)N[C@@H](Cc1c[nH]c4ccccc14)C(=O)N[C@@H]([C@@H](C)O)C(=O)N[C@@H](C)C(=O)N3)N[C@@H](CCC(N)=O)C(=O)NC(=O)[C@H](CC(N)=O)NC(=O)[C@H](CC(N)=O)NC(=O)[C@H](CCC(N)=O)NC2=O)C(C)C`, in test [1], the Ratio was 0.75. In test [2] (read-out: Kd), the Kd was 109 mM.
For the compound `CC[C@H](C)[C@H](NC(=O)[C@H](CC(C)C)NC(=O)CNC(=O)[C@H](Cc1ccccc1)NC(=O)[C@H](CO)NC(=O)CN)C(=O)N[C@@H](CC(=O)O)C(=O)N[C@H](C(=O)N[C@@H](CCCCN)C(=O)N[C@H]1CSSC[C@@H]2NC(=O)[C@H](CCC(=O)O)NC(=O)CNC(=O)[C@H](CCC(N)=O)NC(=O)CNC(=O)[C@H](CO)NC(=O)CNC(=O)[C@H]([C@@H](C)O)NC(=O)[C@H](C(C)C)NC(=O)[C@H](CCCCN)NC(=O)[C@H](CCCCN)NC(=O)[C@@H]3CSSC[C@@H](C(=O)N[C@@H](Cc4ccc(O)cc4)C(=O)O)N[C@@H](CC(=O)O)C(=O)[C@H](CSSC[C@H](NC(=O)[C@H](CCC(=O)O)NC(=O)[C@H](CO)NC(=O)[C@H](CO)NC(=O)[C@H](C)NC(=O)[C@H](Cc4ccccc4)NC1=O)C(=O)N[C@@H](Cc1c[nH]c4ccccc14)C(=O)N[C@@H]([C@@H](C)O)C(=O)N[C@@H](C)C(=O)N3)N[C@@H](CCC(N)=O)C(=O)NC(=O)[C@H](CC(N)=O)NC(=O)[C@H](CC(N)=O)NC(=O)[C@H](CCC(N)=O)NC2=O)C(C)C`, the Ratio in test [1] turned out to be 0.8. For the same compound, in test [2], the equilibrium dissociation constant (Kd) result is listed as “Not Active”.

Source of the values: ChEMBL document CHEMBL4354835, “Selective Blockade of Neuronal BK (α + β4) Channels Preventing Epileptic Seizure” (J Med Chem, 2020).
